Assay results taken from publication PMC6049614 (Chemical Communications (Cambridge, England), 2018).
Where a SMILES comes first, the peptide text is derived from it. Bridges are numbered along the chain shown (N, C = ends). [ ]: non-standard residue; d: D form. Mpa = O=C(O)CCS

What was measured:
Format in all cases: binding
human OTR = target: T1, human OTR (Homo sapiens, UniProt P30559); test: Scintillation proximity assay, displacement of [3H]OT from human OTR; settings: for Ki: human OTR
T1 construct: expressed in transfected cells
T1 sequence (P30559 1-389): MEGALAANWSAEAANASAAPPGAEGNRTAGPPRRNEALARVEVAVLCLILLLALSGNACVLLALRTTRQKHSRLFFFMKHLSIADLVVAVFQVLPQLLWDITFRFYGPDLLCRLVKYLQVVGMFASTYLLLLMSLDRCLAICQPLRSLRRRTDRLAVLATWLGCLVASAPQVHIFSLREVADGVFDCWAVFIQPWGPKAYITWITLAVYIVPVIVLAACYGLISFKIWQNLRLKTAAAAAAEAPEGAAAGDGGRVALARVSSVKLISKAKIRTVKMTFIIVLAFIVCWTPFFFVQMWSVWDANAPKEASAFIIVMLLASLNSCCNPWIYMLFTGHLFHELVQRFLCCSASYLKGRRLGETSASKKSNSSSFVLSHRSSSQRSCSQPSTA
From the text: (§1) OT analogues were screened in scintillation proximity assays that displace [^3H]OT or [^3H]AVP from the corresponding receptors. […]
(§2) All RCYs reported are decay corrected to the time of 18F delivery. The protocols for performing
(§3) receptor radioligand binding and potency studies on transfected cells to determine affinity

human V1a receptors = target: T2, human V1a receptors (Homo sapiens, UniProt P37288); test: Scintillation proximity assay, displacement of [3H]AVP from human V1a receptor
T2 construct: expressed in transfected cells
From the text: as §1, §2, §3

[1] = target: T3, human vasopressin receptor V2 (Homo sapiens, UniProt P30518); test: Scintillation proximity assay, displacement of [3H]AVP from human V2 receptor
T3 construct: expressed in transfected cells
From the text: as §1, §2, §3

T2 sequence (P37288 whole entry): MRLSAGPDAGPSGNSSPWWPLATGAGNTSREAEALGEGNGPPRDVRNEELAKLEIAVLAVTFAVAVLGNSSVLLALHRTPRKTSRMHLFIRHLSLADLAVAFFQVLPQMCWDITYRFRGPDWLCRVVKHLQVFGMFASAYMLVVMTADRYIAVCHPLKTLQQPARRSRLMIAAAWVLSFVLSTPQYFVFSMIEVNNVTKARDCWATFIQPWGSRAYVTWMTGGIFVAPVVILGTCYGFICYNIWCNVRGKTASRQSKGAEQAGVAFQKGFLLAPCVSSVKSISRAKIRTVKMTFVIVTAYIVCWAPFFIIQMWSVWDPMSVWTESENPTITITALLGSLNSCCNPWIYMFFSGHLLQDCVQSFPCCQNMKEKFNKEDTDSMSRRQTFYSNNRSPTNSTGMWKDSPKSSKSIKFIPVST
T3 sequence (P30518 whole entry): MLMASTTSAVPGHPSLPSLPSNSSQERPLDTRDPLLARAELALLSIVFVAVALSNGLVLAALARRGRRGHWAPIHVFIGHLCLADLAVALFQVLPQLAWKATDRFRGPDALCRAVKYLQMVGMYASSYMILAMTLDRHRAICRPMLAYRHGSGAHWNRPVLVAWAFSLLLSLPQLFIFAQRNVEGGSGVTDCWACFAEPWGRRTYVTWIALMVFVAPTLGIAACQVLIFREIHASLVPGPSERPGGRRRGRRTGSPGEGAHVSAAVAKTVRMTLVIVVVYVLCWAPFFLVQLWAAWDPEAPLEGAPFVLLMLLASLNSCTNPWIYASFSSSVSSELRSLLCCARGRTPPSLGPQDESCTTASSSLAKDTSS

Ki (human OTR) [nM] | Ki (human V1a receptors) [nM] | Ki [1] [nM] | selectivity towards OTR (human OTR; OTR over V1a, from Ki values of Table 1) [fold] | SMILES
6.3 ± 3.6 | 31 ± 9 | 5820 ± 1700 |  | CC[C@H](C)[C@H](NC(=O)[C@H](Cc1ccc(O)cc1)NC(=O)CCS)C(=O)N[C@@H](CCC(N)=O)C(=O)N[C@@H](CC(N)=O)C(=O)N[C@@H](CS)C(=O)N1CCC[C@H]1C(=O)N[C@@H](CCCCN)C(=O)NCC(N)=O [dLVToc] ([Mpa]YIQNCPKG-NH2)
3.4 ± 1 | 24 ± 5 | 4840 ± 1670 | ~7 | CC[C@H](C)[C@@H]1NC(=O)[C@H](Cc2ccc(O)cc2)NC(=O)CCSSC[C@@H](C(=O)N2CCC[C@H]2C(=O)N[C@@H](CCCCN)C(=O)NCC(N)=O)NC(=O)[C@H](CC(N)=O)NC(=O)[C@H](CCC(N)=O)NC1=O [dLVTc, reference compound] ([Mpa]YIQNCPKG-NH2; disulfide 1-6)
1.2 ± 0.9 | 362 ± 124 |  |  | CC[C@H](C)[C@H](NC(=O)[C@H](Cc1ccc(O)cc1)NC(=O)CCS)C(=O)N[C@@H](CCC(N)=O)C(=O)N[C@@H](CC(N)=O)C(=O)N[C@@H](CS)C(=O)N1CCC[C@H]1C(=O)N[C@@H](CC(C)C)C(=O)NCC(N)=O [dOToc]
1.6 ± 1.3 | 388 ± 157 |  |  | CC[C@H](C)[C@@H]1NC(=O)[C@H](Cc2ccc(O)cc2)NC(=O)CCSSC[C@@H](C(=O)N2CCC[C@H]2C(=O)N[C@@H](CC(C)C)C(=O)NCC(N)=O)NC(=O)[C@H](CC(N)=O)NC(=O)[C@H](CCC(N)=O)NC1=O [dOTc]
